Drawing on US11498928B2, “Macrocyclic spiroethers as Mcl-1 inhibitors” (ASCENTAGE PHARMA (SUZHOU) CO., LTD., priority 2019, dated 2022), this text covers IC50 for 21 molecules.

For experiment [1], the system named is OPM-2 cells. In words: Cell viability assay (OPM-2 cells), CCK-8. As to conditions: 5% FBS. Format: cell-based. The method, then: OPM-2 cells were obtained from Deutsche Sammlung von Mikroorganismen and Zellkulturen GmbH (DSMZ). Cells were maintained in the recommended culture medium with 10% FBS at 37° C. and an atmosphere of 5% CO2.
The effect of representative Compounds of the Disclosure on cell viability was determined using Cell Counting Kit-8 (CCK-8) assay (Shanghai Life iLab Bio Technology) according to the manufacturer's instructions. Each tested compound was serially diluted in culture medium, 100 μL of the compound dilution was added into 96-well plates. 100 μL of an OPM-2 cell suspension (20000 cells/well) in culture medium were seeded into the corresponding well of the plate and the cells were incubated at 37° C. in an atmosphere of 5% CO2 for 24 hours. In the next day, 20 μL of CCK-8 solution was added to each well of the plate and incubated for 4 hours.
The plates were read at 450 nm on the microplate spectrophotometer (SpectraMax plus 384, Molecular devices). The readings were normalized to the vehicle cells, and the IC50 was calculated by nonlinear regression analysis using GraphPad Prism 6 software.

Experiment [2] addresses T1, Mcl-1 protein (residues 171-323) (Homo sapiens, UniProt Q07820).
T1 construct: Tag-free Mcl-1 protein (residues 171-323) was used in the FP assay
Briefly: Inhibition of Mcl-1 by fluorescence polarization (FP) competitive binding assay with FAM-Bid tracer. As to conditions: 2 nM FAM-Bid, 20 nM Mcl-1, 30 min. The procedure:
Inhibition of Mcl-1 by Fluorescence Polarization (FP) Assay.
The relative binding potency of representative Compounds of the Disclosure was determined by a fluorescence polarization (FP) assay (Long et al, BMC Biotechnology 13:45 (2013)). The method used a fluorescein labelled peptide (FAM-Bid) which binds to the Mcl-1 protein leading to an increased anisotropy measured in milli-polarization (mP) values using a plate reader. […] Tag-free Mcl-1 protein (residues 171-323) was used in the FP assay (Mady et al, Scientific Reports 8: 10210-10210 (2018); Yang et al, ACS Med. Chem. Lett. 3:308-312 (2012)).
A 10-points serial dilution of each compound was prepared in DMSO and 5 μL solution was transferred into flat bottomed, 96-well back plate (final DMSO concentration 5%). 120 μL of Buffer (PBS, 0.01% BGG (Sigma Cat. #SRE0011), 0.01% Triton X-100), containing the Fluorescein labelled peptide (Final concentration 2 nM) and Mcl-1 protein (final concentration 20 nM) was then added. Assay plates were incubated 30 mins at room temperature with gentle shaking before FP was measured on a Biotek Synergy 1MF reader (Ex. 485 nm, Em. 528 nm, Cut off 510 nm) and mP calculated. The binding of increasing doses of test compounds was expressed as a percentage reduction in mP compared to a window established between 5% DMSO only and 100% inhibition controls (no Mcl-1 protein). 10-points dose response curves were plotted with GraphPad software using Sigmoidal Dose-Response Model and the IC50 values were determined by nonlinear regression fitting of the competition curves. Cell Viability Assay (NCI-H929 cells)
A general note: Fluorescence polarisation rises when a labelled molecule tumbles more slowly, as on binding a larger partner.

Experiment [3] has as its system NCI-H929 cells. Briefly: Cell viability assay (NCI-H929 cells), CCK-8. Format: cell-based. As to conditions: 5% FBS. The method, then:
NCI-H929 cells were obtained from American Type Culture Collection (ATCC). Cells were maintained in the recommended culture medium (RPMI 1640) with 10% FBS and 0.05 mM BME at 37° C. and an atmosphere of 5% CO2.
The effect of Compounds on cell viability was determined using Cell Counting Kit-8 (CCK-8) assay according to the manufacturer's instructions. 95 μL of NCI-H929 cell suspension (20000 cells/well) in culture medium were seeded into 96-well plates and cultured 4 hrs. Each tested compound was serially diluted in DMSO, then 5 μL of the compound or DMSO was diluted in 95 μL medium once more. At last, 5 μL of the compound dilution was added to the corresponding well of the cell plate. After the addition of the tested compound, the cells were incubated at 37° C. in an atmosphere of 5% CO2 for 24 hrs. At the end, 10 μL of CCK-8 solution was added to each well of the plate and incubated for 1-4 hours. The plates were read at 450 nm on the microplate reader (BioTek Synergy 1MF). The readings were normalized to the vehicle cells, and the IC50 was calculated by nonlinear regression analysis using GraphPad Prism 6 software. Cell Viability Assay (OPM-2 cells)

In general, IC50 refers to the concentration that gives 50% inhibition.

Bounds are passed on as bounds.

T1 sequence (Q07820 171-323): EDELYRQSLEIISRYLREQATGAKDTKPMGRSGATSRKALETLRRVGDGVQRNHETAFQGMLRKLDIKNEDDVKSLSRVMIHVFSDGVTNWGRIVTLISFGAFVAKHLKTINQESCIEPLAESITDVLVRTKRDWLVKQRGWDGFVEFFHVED

In the case of `CO[C@H]1C2=C[C@H](C2)[C@H](C)N(C[C@@H]2CCCO2)S(=O)(=O)NC(=O)c2ccc3c(c2)N(C[C@@H]2CC[C@H]21)C[C@@]1(CCCc2cc(Cl)ccc21)CO3` (single isomer, unassigned) [30 (isomer 1)], the IC50 in experiment [1] (Homo sapiens, OPM-2, 24 h) came to 2.31 µM; in experiment [2], 0.0062 µM; in experiment [3] (Homo sapiens, NCI-H929, 24 h), 2.9 µM.
On the same counts, the results for `CO[C@H]1C2=C[C@H](C2)[C@H](C)N(C[C@H]2CCCO2)S(=O)(=O)NC(=O)c2ccc3c(c2)N(C[C@@H]2CC[C@H]21)C[C@@]1(CCCc2cc(Cl)ccc21)CO3` (single isomer, unassigned) [30 (isomer 2)] are 4.77 µM, 0.0051 µM and 4.7 µM.
With `CO[C@H]1C2=C[C@@H](C2)[C@H](C)N(C[C@@H]2CCCO2)S(=O)(=O)NC(=O)c2ccc3c(c2)N(C[C@@H]2CC[C@H]21)C[C@@]1(CCCc2cc(Cl)ccc21)CO3` (single isomer, unassigned) [30 (isomer 3)], the IC50 was 6.1 µM in experiment [1] (Homo sapiens, OPM-2, 24 h); 0.014 µM in experiment [2]; 5.2 µM in experiment [3] (Homo sapiens, NCI-H929, 24 h).
On the same counts, the results for `CO[C@H]1C2=C[C@@H](C2)[C@H](C)N(C[C@H]2CCCO2)S(=O)(=O)NC(=O)c2ccc3c(c2)N(C[C@@H]2CC[C@H]21)C[C@@]1(CCCc2cc(Cl)ccc21)CO3` (single isomer, unassigned) [30 (isomer 4)] are more than 10 µM, 0.021 µM and more than 10 µM.
For the molecule `CO[C@H]1C2=CC(CCS(=O)(=O)NC(=O)c3ccc4c(c3)N(C[C@@H]3CC[C@H]31)C[C@@]1(CCCc3cc(Cl)ccc31)CO4)C2` (single isomer, unassigned) [Cpd. No. 1 (Isomer 1)], the figures for the IC50 in experiment [1] (24 h), in experiment [2] and in experiment [3] (24 h) were 0.547 µM, 0.0068 µM and 0.36 µM, respectively.
On the same counts, the results for `CO[C@H]1C2=CC(CCS(=O)(=O)NC(=O)c3ccc4c(c3)N(C[C@@H]3CC[C@H]31)C[C@@]1(CCCc3cc(Cl)ccc31)CO4)C2` (single isomer, unassigned) [Cpd. No. 1 (Isomer 2)] are 2.43 µM, 0.0057 µM and 1.5 µM.
`CO[C@@H]1C2=CC(CCS(=O)(=O)NC(=O)c3ccc4c(c3)N(C[C@@H]3CC[C@H]31)C[C@@]1(CCCc3cc(Cl)ccc31)CO4)C2` (single isomer, unassigned) [Cpd. No. 4 (Isomer 1)]: the 50% inhibitory concentration (IC50) in experiment [1] (24 h) is 5.72 µM; in experiment [2] it was 0.0083 µM; in experiment [3] (24 h), 4.2 µM.
As to `CO[C@@H]1C2=CC(CCS(=O)(=O)NC(=O)c3ccc4c(c3)N(C[C@@H]3CC[C@H]31)C[C@@]1(CCCc3cc(Cl)ccc31)CO4)C2` (single isomer, unassigned) [Cpd. No. 4 (Isomer 2)], the 50% inhibitory concentration (IC50) in experiment [1] (24 h) is 2.12 µM; in experiment [2] it was 0.012 µM; in experiment [3] (24 h), 1.6 µM.
Turning to `CO[C@H]1C2=CC(C2)C(C)(C)CS(=O)(=O)NC(=O)c2ccc3c(c2)N(C[C@@H]2CC[C@H]21)C[C@@]1(CCCc2cc(Cl)ccc21)CO3` (single isomer, unassigned) [Cpd. No. 5 (Isomer 1)], the IC50 was 0.411 µM in experiment [1] (24 h), 0.0048 µM in experiment [2] and 0.12 µM in experiment [3] (24 h).
As for `CO[C@H]1C2=CC(C2)C(C)(C)CS(=O)(=O)NC(=O)c2ccc3c(c2)N(C[C@@H]2CC[C@H]21)C[C@@]1(CCCc2cc(Cl)ccc21)CO3` (single isomer, unassigned) [Cpd. No. 5 (Isomer 2)], the half-inhibitory concentration (IC50) in experiment [1] (24 h) worked out at 5.21 µM; in experiment [2], 0.0083 µM; in experiment [3] (24 h), 1.6 µM.
Regarding `CO[C@@H]1C2=CC(C2)C(C)(C)CS(=O)(=O)NC(=O)c2ccc3c(c2)N(C[C@@H]2CC[C@H]21)C[C@@]1(CCCc2cc(Cl)ccc21)CO3` (single isomer, unassigned) [Cpd. No. 6 (Isomer 1)], the IC50 stood at 1.3 µM in experiment [1] (24 h), 0.0052 µM in experiment [2] and 0.87 µM in experiment [3] (24 h).
On the same counts, the results for `CO[C@@H]1C2=CC(C2)C(C)(C)CS(=O)(=O)NC(=O)c2ccc3c(c2)N(C[C@@H]2CC[C@H]21)C[C@@]1(CCCc2cc(Cl)ccc21)CO3` (single isomer, unassigned) [Cpd. No. 6 (Isomer 2)] are 2.87 µM, 0.0063 µM and 3.4 µM.
With `CC[C@@H]1CS(=O)(=O)NC(=O)c2ccc3c(c2)N(C[C@@H]2CC[C@H]2[C@@H](OC)C2=CC1C2)C[C@@]1(CCCc2cc(Cl)ccc21)CO3` (single isomer, unassigned) [Cpd. No. 9 (Isomer 1)], the IC50 is 1.17 µM in experiment [1] (24 h), 0.0044 µM in experiment [2] and 0.68 µM in experiment [3] (24 h).
For `CC[C@@H]1CS(=O)(=O)NC(=O)c2ccc3c(c2)N(C[C@@H]2CC[C@H]2[C@@H](OC)C2=CC1C2)C[C@@]1(CCCc2cc(Cl)ccc21)CO3` (single isomer, unassigned) [Cpd. No. 9 (Isomer 2)], in that order: 0.26 µM, 0.0039 µM and 0.21 µM.
Take `CC[C@@H]1CS(=O)(=O)NC(=O)c2ccc3c(c2)N(C[C@@H]2CC[C@H]2[C@@H](OC)C2=CC1C2)C[C@@]1(CCCc2cc(Cl)ccc21)CO3` (single isomer, unassigned) [Cpd. No. 10 (Isomer 1)]: the IC50 in experiment [1] (24 h) amounted to 2.5 µM; in experiment [2] it was 0.0049 µM; in experiment [3] (24 h), 1.7 µM.
On the same counts, the results for `CC[C@@H]1CS(=O)(=O)NC(=O)c2ccc3c(c2)N(C[C@@H]2CC[C@H]2[C@@H](OC)C2=CC1C2)C[C@@]1(CCCc2cc(Cl)ccc21)CO3` (single isomer, unassigned) [Cpd. No. 10 (Isomer 2)] are 1.13 µM, 0.0049 µM and 0.78 µM.
For `CO[C@H]1C2=CC(C2)[C@H](C)CS(=O)(=O)NC(=O)c2ccc3c(c2)N(C[C@@H]2CC[C@H]21)C[C@@]1(CCCc2cc(Cl)ccc21)CO3` (single isomer, unassigned) [Cpd. No. 14 (Isomer 2)], the IC50 in experiment [1] (24 h) was determined as 1.31 µM; in experiment [2] it was 0.011 µM; in experiment [3] (24 h), 0.15 µM.
Regarding `CO[C@H]1C2=C[C@H](C2)[C@H](C)[C@@H](C)S(=O)(=O)NC(=O)c2ccc3c(c2)N(C[C@@H]2CC[C@H]21)C[C@@]1(CCCc2cc(Cl)ccc21)CO3` (single isomer, unassigned) [Cpd. No. 15 (isomer 2)], the IC50 in experiment [1] (Homo sapiens, OPM-2, 24 h) amounted to 1 µM; in experiment [2] it was 0.0065 µM; in experiment [3] (Homo sapiens, NCI-H929, 24 h), 0.23 µM.
On the same counts, the results for `CO[C@H]1C2=C[C@H](C2)[C@H](C)[C@@H](C)S(=O)(=O)NC(=O)c2ccc3c(c2)N(C[C@@H]2CC[C@H]21)C[C@@]1(CCCc2c1ccc(Cl)c2F)CO3` (single isomer, unassigned) [Cpd. No. 17 (isomer 2)] are 0.601 µM, 0.012 µM and 0.31 µM.
Turning to `CO[C@H]1C2=CC(C)(C2)[C@H](C)CS(=O)(=O)NC(=O)c2ccc3c(c2)N(C[C@@H]2CC[C@H]21)C[C@@]1(CCCc2cc(Cl)ccc21)CO3` (single isomer, unassigned) [Cpd. No. 18 (Isomer 1)], the IC50 was determined as 0.025 µM in experiment [1] (24 h), 0.0042 µM in experiment [2] and 0.037 µM in experiment [3] (24 h).
Take `CO[C@H]1C2=CC(C)(C2)[C@H](C)CS(=O)(=O)NC(=O)c2ccc3c(c2)N(C[C@@H]2CC[C@H]21)C[C@@]1(CCCc2cc(Cl)ccc21)CO3` (single isomer, unassigned) [Cpd. No. 18 (Isomer 2)]: the IC50 was determined as 1.21 µM in experiment [1] (24 h), 0.0049 µM in experiment [2] and 0.44 µM in experiment [3] (24 h).
